Experiment [1] has as its system Wuhan-like SARS-CoV-2 strain. As to the kind of experiment: microbe, parasite or virus in culture. It is filed as cell-based.
The target of experiment [2] is RNA-dependent RNA polymerase (NSP12). More on the design: method as in Su et al., 2021; Pan et al., 2023; Kuzikov et al., 2024. Particulars: ref Su et al., 2021; Pan et al., 2023; Kuzikov et al., 2024; cited from earlier work.
The subject of another experiment is main protease (NSP5). Particulars: 2024, cited from earlier work.
In the next experiment the target is spike protein. As to conditions: read-out: Kd, spike protein; ref Su et al., 2021; Pan et al., 2023; Kuzikov et al., 2024; cited from earlier work.

The structures appear in SMILES notation. “Also recorded” adds a separate entry of the source. Read-outs that look alike come from different tables or passages of the source.

For `O=C(/C=C/c1ccc(O)c(O)c1)O[C@@H]1C[C@](O)(C(=O)O)C[C@@H](O)[C@H]1O` [Chlorogenic acid, (1S,3R,4R,5R)-3-[(E)-3-(3,4-Dihydroxyphenyl)prop-2-enoyl]oxy-1,4,5-trihydroxycyclohexane-1-carboxylic acid], the “IC50, infection assay (percentage of infected cells)” value in experiment [1] (Vero E6 cells, MOI 0.3, 48 h, compound 1 h before infection) was “no significant effect; also recorded: no significant inhibition”.

Consider `O=c1c(O)c(-c2cc(O)c(O)c(O)c2)oc2cc(O)cc(O)c12` [Myricetin, 3,5,7-Trihydroxy-2-(3,4,5-trihydroxyphenyl)chromen-4-one], for which the IC50 was 860 nM in experiment [2] and 630 nM in the experiment with main protease (NSP5) (ref Su et al., 2021, Pan et al., 2023, Kuzikov et al., read-out: IC50, main protease (NSP5)). Further, on spike protein, the Kd was 2670 nM.

As for `O=c1nc(NO)ccn1[C@@H]1O[C@H](CO)[C@@H](O)[C@H]1O` [NHC, β-D-N4-hydroxycytidine, reference compound], the IC50 in experiment [1] (Vero E6 cells, MOI 0.3, 48 h, compound 1 h before infection, read-out: IC50, infection assay (percentage of infected cells)) came out at 745 nM.

Take `O=C(/C=C/c1ccc(O)c(O)c1)O[C@H](Cc1ccc(O)c(O)c1)C(=O)O` [Rosmarinic acid, (2R)-3-(3,4-Dihydroxyphenyl)-2-[(E)-3-(3,4-dihydroxyphenyl)prop-2-enoyl]oxypropanoic acid]: the 50% inhibitory concentration (IC50) is 59300 nM in experiment [1] (Severe acute respiratory syndrome coronavirus 2, Vero C1008, read-out: IC50, infection assay (percentage of infected cells)) and 2180 nM in the experiment with main protease (NSP5) (noncovalent binding to active site, ref Li et al., read-out: IC50, NSP5).

Values taken from publication PMC12128885, “Myricetin-bound crystal structure of the SARS-CoV-2 helicase NSP13 facilitates the discovery of novel natural inhibitors” (Acta Crystallographica Section D: Structural Biology, 2025).
